Tests used:
[1] = tested on: Plasmodium falciparum; experiment: Antimalarial activity against chloroquine-sensitive Plasmodium falciparum 3D7 infected in red blood cells after 72 hrs by SYBR green 1 staining based fluorometric assay; format: functional, cell-based; settings: 3D7, 72 h
[2] = tested on: Plasmodium falciparum; experiment: Antimalarial activity against chloroquine-resistant Plasmodium falciparum W2 infected in red blood cells after 72 hrs by SYBR green 1 staining based fluorometric assay; format: functional, cell-based; settings: W2, 72 h
[3] = Resistance index, ratio of IC50 for chloroquine-resistant Plasmodium falciparum W2 infected in red blood cells to IC50 for chloroquine-sensitive Plasmodium falciparum 3D7 infected in red blood cells; format: functional
[4] = Cytotoxicity against HUVEC assessed as decrease in cell viability at 0.01 to 50 umol/l after 24 hrs by trypan blue dye based assay; format: toxicity; settings: human
[5] = Stability of the compound in pH 7.4 solution up to 48 hrs; format: physicochemical; settings: buffer, pH 7.4, 48 h

| Structure (SMILES) | IC50 [1] | IC50 [2] | Ratio IC50 [3] | Activity [4] | Stability [5] |
| --- | --- | --- | --- | --- | --- |
| COC1=CC(=O)N(CCCNc2ccnc3cc(Cl)ccc23)C1(O)Cc1ccc(C(C)(C)C)cc1 (stereo not given) | 91 nM | 214 nM | 2.3 |  |  |
| CN(CCNc1ccnc2cc(Cl)ccc12)CCN1C(=O)C=C(OCc2ccccc2)C1(O)Cc1ccc(C(F)(F)F)cc1 (stereo not given) | 40 nM | 42 nM | 1 | Non-Toxic | Stable |
| COC1=CC(=O)N(CCN2CCN(CCNc3ccnc4cc(Cl)ccc34)CC2)C1(O)Cc1ccc(C(F)(F)F)cc1 (stereo not given) | 19 nM | 16 nM | 0.8 | Non-Toxic | Stable |
| COC1=CC(=O)N(CCCNc2ccnc3cc(Cl)ccc23)C1(O)Cc1ccc(OC)c(OC)c1 (stereo not given) | 511 nM | 760 nM | 1.5 |  |  |
| COC1=CC(=O)N(CCN(C)CCNc2ccnc3cc(Cl)ccc23)C1(O)Cc1ccc(C(F)(F)F)cc1 (stereo not given) | 14 nM | 34 nM | 2.4 | Non-Toxic | Stable |
| O=C1C=C(OCc2ccccc2)C(O)(Cc2ccccc2)N1CCCNc1ccnc2cc(Cl)ccc12 (stereo not given) | 143 nM | 191 nM | 1.3 |  |  |
| O=C1C=C(OCc2ccccc2)C(O)(Cc2ccc(C(F)(F)F)cc2)N1CCCNc1ccnc2cc(Cl)ccc12 (stereo not given) | 36 nM | 36 nM | 1 | Non-Toxic | Stable |
| CN(CCNc1ccnc2cc(Cl)ccc12)CCN1C(=O)C=C(OCc2ccccc2)C1(O)Cc1ccccc1 (stereo not given) | 54 nM | 64 nM | 1.2 | Non-Toxic | Stable |
| COC1=CC(=O)N(CCCNc2ccnc3cc(Cl)ccc23)C1(O)Cc1ccc(F)cc1 (stereo not given) | 191 nM | 670 nM | 3.5 |  |  |
| O=C1C=C(OCc2ccccc2)C(O)(Cc2ccc(F)cc2)N1CCCNc1ccnc2cc(Cl)ccc12 (stereo not given) | 42 nM | 58 nM | 1.4 | Non-Toxic | Stable |
| COC1=CC(=O)N(CCCNc2ccnc3cc(Cl)ccc23)C1(O)Cc1ccccc1 (stereo not given) | 300 nM | 827 nM | 2.8 |  |  |

Source: ChEMBL document CHEMBL3862008, “7-Chloro-4-aminoquinoline γ-hydroxy-γ-lactam derived-tetramates as a new family of antimalarial compounds” (Bioorg Med Chem Lett, 2016)
